Laboratory results published in patent US20240116892A1, “HETEROCYCLIC AMIDE AND UREA COMPOUNDS AS JAK2 INHIBITORS” (Ajax Therapeutics, Inc., priority 2022, published 2024).

Biological target: JAK2 (JH1 domain-catalytic, Y1007F, Y1008F) kinase (Homo sapiens (Human), UniProt O60674, Y1007F/Y1008F)
Experiment: JAK2 JH1 Domain Binding Assay
Conditions: qPCR readout
Summary of the method: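 JH1 catalytic domain (Y1007F/Y1008F) expressed as NFkB DNA-binding-domain fusion in HEK293 cells, DNA-tagged. Competition with immobilized biotinylated ligand on streptavidin beads, 1 h at RT in PBS/Tween/BSA/DTT; bound kinase eluted with free ligand and quantified by qPCR.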

Sequence of JAK2 (JH1 domain-catalytic, Y1007F, Y1008F) kinase (O60674 849-1124 Y1007F/Y1008F): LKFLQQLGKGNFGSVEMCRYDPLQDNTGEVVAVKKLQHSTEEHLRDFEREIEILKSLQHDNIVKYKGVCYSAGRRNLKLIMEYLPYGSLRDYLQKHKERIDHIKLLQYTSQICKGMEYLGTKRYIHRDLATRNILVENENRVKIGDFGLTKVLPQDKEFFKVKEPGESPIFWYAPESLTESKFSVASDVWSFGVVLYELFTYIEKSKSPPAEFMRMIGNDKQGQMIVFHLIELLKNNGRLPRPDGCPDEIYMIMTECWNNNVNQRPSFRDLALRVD

Row | SMILES | Kd [µM]
1 | COCc1cc2nc(N3CC[C@H](N(C)C(=O)Nc4cc(C(F)(F)F)cn(C)c4=O)C(F)(F)C3)cnc2[nH]1 [Example I-110-b, (S)-1-(3,3-difluoro-1-(6-(methoxymethyl)-5H-pyrrolo[2,3-b]pyrazin-2-yl)piperidin-4-yl)-1-methyl-3-(1-methyl-2-oxo-5-(trifluoromethyl)-1,2-dihydropyridin-3-yl)urea] | < 0.01
2 | COCc1cc2nc(N3CC[C@@H](N(C)C(=O)Nc4cc(C(F)(F)F)cn(C)c4=O)[C@@H](F)C3)cnc2[nH]1 [Example I-111-a, 1-((3S,4R)-3-fluoro-1-(6-(methoxymethyl)-5H-pyrrolo[2,3-b]pyrazin-2-yl)piperidin-4-yl)-1-methyl-3-(1-methyl-2-oxo-5-(trifluoromethyl)-1,2-dihydropyridin-3-yl)urea] | < 0.01
3 | COCc1cc2nc(N3CC[C@H](N(C)C(=O)Nc4cc(C(F)(F)F)cn(C)c4=O)[C@H](F)C3)cnc2[nH]1 [Example I-111-b, 1-((3R,4S)-3-fluoro-1-(6-(methoxymethyl)-5H-pyrrolo[2,3-b]pyrazin-2-yl)piperidin-4-yl)-1-methyl-3-(1-methyl-2-oxo-5-(trifluoromethyl)-1,2-dihydropyridin-3-yl)urea] | < 0.01
4 | CN(C(=O)Nc1cc(C(F)(F)F)cn(C)c1=O)C1CCN(c2cnc3[nH]n(C4CCOCC4)c(=O)c3c2)CC1 [Example I-112, 1-methyl-3-(1-methyl-2-oxo-5-(trifluoromethyl)-1,2-dihydropyridin-3-yl)-1-(1-(3-oxo-2-(tetrahydro-2H-pyran-4-yl)-2,3-dihydro-1H-pyrazolo[3,4-b]pyridin-5-yl)piperidin-4-yl)urea] | 0.01 to 0.05
5 | COCc1cc2nc(N3CC[C@H](N(C)C(=O)Nc4cc(C(F)(F)F)cn(C)c4=O)[C@@H](OC)C3)cnc2[nH]1 [Example I-113-a, 1-((3S,4S)-3-methoxy-1-(6-(methoxymethyl)-5H-pyrrolo[2,3-b]pyrazin-2-yl)piperidin-4-yl)-1-methyl-3-(1-methyl-2-oxo-5-(trifluoromethyl)-1,2-dihydropyridin-3-yl)urea] | 0.05 to 1
6 | COCc1cc2nc(N3CC[C@@H](N(C)C(=O)Nc4cc(C(F)(F)F)cn(C)c4=O)[C@H](OC)C3)cnc2[nH]1 [Example I-113-b, 1-((3R,4R)-3-methoxy-1-(6-(methoxymethyl)-5H-pyrrolo[2,3-b]pyrazin-2-yl)piperidin-4-yl)-1-methyl-3-(1-methyl-2-oxo-5-(trifluoromethyl)-1,2-dihydropyridin-3-yl)urea] | 1 to 5
7 | CN(C(=O)Nc1cc(C(F)(F)F)cn(C)c1=O)[C@H]1CCN(c2cnc3[nH]nc(OC4CCOCC4)c3c2)C[C@@H]1F [Example I-114-a, 1-((3S,4S)-3-fluoro-1-(3-((tetrahydro-2H-pyran-4-yl)oxy)-1H-pyrazolo[3,4-b]pyridin-5-yl)piperidin-4-yl)-1-methyl-3-(1-methyl-2-oxo-5-(trifluoromethyl)-1,2-dihydropyridin-3-yl)urea] | < 0.01
8 | CN(C(=O)Nc1cc(C(F)(F)F)cn(C)c1=O)[C@@H]1CCN(c2cnc3[nH]nc(OC4CCOCC4)c3c2)C[C@H]1F [Example I-114-b, 1-((3R,4R)-3-fluoro-1-(3-((tetrahydro-2H-pyran-4-yl)oxy)-1H-pyrazolo[3,4-b]pyridin-5-yl)piperidin-4-yl)-1-methyl-3-(1-methyl-2-oxo-5-(trifluoromethyl)-1,2-dihydropyridin-3-yl)urea] | < 0.01
9 | CO[C@@H]1CN(c2cnc3[nH]nc(N(C)C)c3c2)CC[C@H]1N(C)C(=O)Nc1cc(C(F)(F)F)cn(C)c1=O [Example I-115-a, 1-((3R,4R)-1-(3-(dimethylamino)-1/-pyrazolo[3,4-b]pyridin-5-yl)-3-methoxypiperidin-4-yl)-1-methyl-3-(1-methyl-2-oxo-5-(trifluoromethyl)-1,2-dihydropyridin-3-yl)urea] | 0.01 to 0.05
10 | CO[C@H]1CN(c2cnc3[nH]nc(N(C)C)c3c2)CC[C@@H]1N(C)C(=O)Nc1cc(C(F)(F)F)cn(C)c1=O [Example I-115-b, 1-((3S,4S)-1-(3-(dimethylamino)-1H-pyrazolo[3,4-b]pyridin-5-yl)-3-methoxypiperidin-4-yl)-1-methyl-3-(1-methyl-2-oxo-5-(trifluoromethyl)-1,2-dihydropyridin-3-yl)urea] | 0.05 to 1
11 | CN(C(=O)Nc1cc(C(F)(F)F)cn(C)c1=O)C12CC(c3cnc4[nH]ncc4c3)(C1)C2 [Example I-116, 1-(3-(1H-pyrazolo[3,4-b]pyridin-5-yl)bicyclo[1.1.1]pentan-1-yl)-1-methyl-3-(1-methyl-2-oxo-5-(trifluoromethyl)-1,2-dihydropyridin-3-yl)urea] | < 0.01
12 | CO[C@@H]1CN(c2cnc3[nH]c(C)cc3n2)CC[C@H]1N(C)C(=O)Nc1cc(C(F)(F)F)cn(C)c1=O [Example I-117-a, 1-((3R,4R)-3-methoxy-1-(6-methyl-5H-pyrrolo[2,3-b]pyrazin-2-yl)piperidin-4-yl)-1-methyl-3-(1-methyl-2-oxo-5-(trifluoromethyl)-1,2-dihydropyridin-3-yl)urea] | 0.05 to 1
13 | CO[C@H]1CN(c2cnc3[nH]c(C)cc3n2)CC[C@@H]1N(C)C(=O)Nc1cc(C(F)(F)F)cn(C)c1=O [Example I-117-b, 1-((3S,4S)-3-methoxy-1-(6-methyl-5H-pyrrolo[2,3-b]pyrazin-2-yl)piperidin-4-yl)-1-methyl-3-(1-methyl-2-oxo-5-(trifluoromethyl)-1,2-dihydropyridin-3-yl)urea] | 0.05 to 1
14 | CO[C@@H]1CN(c2cnc3[nH]cc(C)c3n2)CC[C@H]1N(C)C(=O)Nc1cc(C(F)(F)F)cn(C)c1=O [Example I-118-a, 1-((3R,4R)-3-methoxy-1-(7-methyl-5H-pyrrolo[2,3-b]pyrazin-2-yl)piperidin-4-yl)-1-methyl-3-(1-methyl-2-oxo-5-(trifluoromethyl)-1,2-dihydropyridin-3-yl)urea] | 0.01 to 0.05
15 | CO[C@H]1CN(c2cnc3[nH]cc(C)c3n2)CC[C@@H]1N(C)C(=O)Nc1cc(C(F)(F)F)cn(C)c1=O [Example I-118-b, 1-((3S,4S)-3-methoxy-1-(7-methyl-5H-pyrrolo[2,3-b]pyrazin-2-yl)piperidin-4-yl)-1-methyl-3-(1-methyl-2-oxo-5-(trifluoromethyl)-1,2-dihydropyridin-3-yl)urea] | 0.05 to 1
16 | CO[C@H]1C[C@H](n2[nH]c3ncc(N4CCC(N(C)C(=O)Nc5cc(C(F)(F)F)cn(C)c5=O)CC4)cc3c2=O)C1 [Example I-119, 1-(1-(2-((1r,3r)-3-methoxycyclobutyl)-3-oxo-2,3-dihydro-1H-pyrazolo[3,4-b]pyridin-5-yl)piperidin-4-yl)-1-methyl-3-(1-methyl-2-oxo-5-(trifluoromethyl)-1,2-dihydropyridin-3-yl)urea] | 1 to 5
17 | Cn1cc(C(F)(F)F)cc(NC(=O)N(C)[C@H]2CC[C@H](c3cnc4[nH]ccc4n3)CC2)c1=O [Example I-120-a, trans-1-(4-(5H-pyrrolo[2,3-b]pyrazin-2-yl)cyclohexyl)-1-methyl-3-(1-methyl-2-oxo-5-(trifluoromethyl)-1,2-dihydropyridin-3-yl)urea] | 0.05 to 1
18 | Cn1cc(C(F)(F)F)cc(NC(=O)N(C)[C@H]2CC[C@@H](c3cnc4[nH]ccc4n3)CC2)c1=O [Example I-120-b, cis-1-(4-(5H-pyrrolo[2,3-b]pyrazin-2-yl)cyclohexyl)-1-methyl-3-(1-methyl-2-oxo-5-(trifluoromethyl)-1,2-dihydropyridin-3-yl)urea] | < 0.01
19 | CN(C(=O)Nc1cc(C(F)(F)F)cn(C)c1=O)C1CCN(c2cnc3[nH]cc(N4CCOCC4)c3n2)CC1 [Example I-124, 1-methyl-3-(1-methyl-2-oxo-5-(trifluoromethyl)-1,2-dihydropyridin-3-yl)-1-(1-(7-morpholino-5H-pyrrolo[2,3-b]pyrazin-2-yl)piperidin-4-yl)urea] | < 0.01
20 | CNc1n[nH]c2ncc(N3CC[C@@H](N(C)C(=O)Nc4cc(C(F)(F)F)cn(C)c4=O)C(F)(F)C3)cc12 [Example I-125-a, (R)-1-(3,3-difluoro-1-(3-(methylamino)-1H-pyrazolo[3,4-b]pyridin-5-yl)piperidin-4-yl)-1-methyl-3-(1-methyl-2-oxo-5-(trifluoromethyl)-1,2-dihydropyridin-3-yl)urea] | < 0.01
21 | CNc1n[nH]c2ncc(N3CC[C@H](N(C)C(=O)Nc4cc(C(F)(F)F)cn(C)c4=O)C(F)(F)C3)cc12 [Example I-125-b, (S)-1-(3,3-difluoro-1-(3-(methylamino)-1H-pyrazolo[3,4-b]pyridin-5-yl)piperidin-4-yl)-1-methyl-3-(1-methyl-2-oxo-5-(trifluoromethyl)-1,2-dihydropyridin-3-yl)urea] | < 0.01
22 | C[C@H]1C[C@@H](N(C)C(=O)Nc2cc(C(F)(F)F)cn(C)c2=O)CCN1c1cnc2[nH]ccc2n1 [Example I-126-a, 1-methyl-1-((2S,4S)-2-methyl-1-(5H-pyrrolo[2,3-b]pyrazin-2-yl)piperidin-4-yl)-3-(1-methyl-2-oxo-5-(trifluoromethyl)-1,2-dihydropyridin-3-yl)urea] | < 0.01
23 | C[C@@H]1C[C@H](N(C)C(=O)Nc2cc(C(F)(F)F)cn(C)c2=O)CCN1c1cnc2[nH]ccc2n1 [Example I-126-b, 1-methyl-1-((2R,4R)-2-methyl-1-(5H-pyrrolo[2,3-b]pyrazin-2-yl)piperidin-4-yl)-3-(1-methyl-2-oxo-5-(trifluoromethyl)-1,2-dihydropyridin-3-yl)urea] | < 0.01
24 | COCc1cc2nc(N3CC[C@H](N(C)C(=O)Nc4cc(C(F)(F)F)cn(C)c4=O)C[C@@H]3C)cnc2[nH]1 [Example I-127-a, 1-((2S,4S)-1-(6-(methoxymethyl)-5H-pyrrolo[2,3-b]pyrazin-2-yl)-2-methylpiperidin-4-yl)-1-methyl-3-(1-methyl-2-oxo-5-(trifluoromethyl)-1,2-dihydropyridin-3-yl)urea] | 0.05 to 1
25 | COCc1cc2nc(N3CC[C@@H](N(C)C(=O)Nc4cc(C(F)(F)F)cn(C)c4=O)C[C@H]3C)cnc2[nH]1 [Example I-127-b, 1-((2R,4R)-1-(6-(methoxymethyl)-5H-pyrrolo[2,3-b]pyrazin-2-yl)-2-methylpiperidin-4-yl)-1-methyl-3-(1-methyl-2-oxo-5-(trifluoromethyl)-1,2-dihydropyridin-3-yl)urea] | 0.05 to 1
